Test results: patent US7785828B1 (priority 2003, dated 2010)
Read-outs that look alike come from different tables or passages of the source.

Key:
Type in all cases: cell-based
Fusarium graminearum [1] = system: Fusarium graminearum
Fusarium graminearum [2] = system: Fusarium graminearum
Septoria tritici = system: Septoria tritici
Mycosphaerella fijiensis = system: Mycosphaerella fijiensis
[3] = Measurement taken at 72 hours after inoculation, fold improvement compared to DmAMP1
[4] = Table 2B (Dm-AMP1 based libraries), improvement compared to reference defensin protein (Rs-AFP2 for Table 2B [sic])
[5] = Measurement taken at 144 hours after inoculation, fold improvement compared to DmAMP1
[6] = Table 2C (mixed diversity library), improvement compared to reference defensin protein DmAMP

NLCERASKTWTGNCGNTKHCDTQCKSWEGAKHGACHVRNGKHKCFCYFNC (Defensin like) [L6-71]
Antifungal activity, Fusarium graminearum (improvement compared to DmAMP1) (Fusarium graminearum [1]; [3]): +++ (+++ indicating >10-fold improvement)
Activity (1): antifungal activity of the NP against Fusarium graminearium (Fusarium graminearum [2]; [4]): +++ (+++ indicates a >10-fold improvement)
Antifungal activity, Septoria tritici (improvement compared to DmAMP1) (Septoria tritici; [5]): + (+ indicating 1- to 5-fold improvement compared to DmAMP1)
Antifungal activity, Mycosphaerella fijiensis (improvement compared to DmAMP1) (Mycosphaerella fijiensis; [5]): + (+ indicating 1- to 5-fold improvement compared to DmAMP1)

DGVKLCERASQTWTGHCGNTKHCDNQCRNWEGAKHGACHKRNGKWKCFCYFNC (Defensin like) [L7-337]
Antifungal activity, Fusarium graminearum (improvement compared to DmAMP1) (Fusarium graminearum [1]; [3]): +++ (+++ indicating >10-fold improvement)
Activity (1): antifungal activity of the NP against Fusarium graminearium (Fusarium graminearum [2]; [6]): ++ (++ indicates a >5- to 10-fold improvement)
Antifungal activity, Septoria tritici (improvement compared to DmAMP1) (Septoria tritici; [5]): + (+ indicating 1- to 5-fold improvement compared to DmAMP1)
Antifungal activity, Mycosphaerella fijiensis (improvement compared to DmAMP1) (Mycosphaerella fijiensis; [5]): ++ (++ indicating >5- to 10-fold improvement)

DGVKLCERASQTWTGHCGNTKHCDKQCRNWEGAKHGACHKRNGKWKCFCYFNC (Defensin like) [L7-179]
Antifungal activity, Fusarium graminearum (improvement compared to DmAMP1) (Fusarium graminearum [1]; [3]): + (+ indicating 1- to 5-fold improvement compared to DmAMP1)
Activity (1): antifungal activity of the NP against Fusarium graminearium (Fusarium graminearum [2]; [6]): +++ (+++ indicates a >10-fold improvement)
Antifungal activity, Septoria tritici (improvement compared to DmAMP1) (Septoria tritici; [5]): + (+ indicating 1- to 5-fold improvement compared to DmAMP1)
Antifungal activity, Mycosphaerella fijiensis (improvement compared to DmAMP1) (Mycosphaerella fijiensis; [5]): + (+ indicating 1- to 5-fold improvement compared to DmAMP1)

DGVKLCEKPSQTWTGNCGNTKHCDTQCRNWEGAKHGACHKRNGKWKCFCYFNC (Defensin like) [L7-427]
Antifungal activity, Fusarium graminearum (improvement compared to DmAMP1) (Fusarium graminearum [1]; [3]): ++ (++ indicating >5- to 10-fold improvement)
Activity (1): antifungal activity of the NP against Fusarium graminearium (Fusarium graminearum [2]; [6]): ++ (++ indicates a >5- to 10-fold improvement)
Antifungal activity, Septoria tritici (improvement compared to DmAMP1) (Septoria tritici; [5]): + (+ indicating 1- to 5-fold improvement compared to DmAMP1)
Antifungal activity, Mycosphaerella fijiensis (improvement compared to DmAMP1) (Mycosphaerella fijiensis; [5]): + (+ indicating 1- to 5-fold improvement compared to DmAMP1)

DGVKLCERASKTWSGHCGNTKHCDNQCRSWEGAKHGACHVRNGKWKCFCYFNC (Defensin like) [L7-452]
Antifungal activity, Fusarium graminearum (improvement compared to DmAMP1) (Fusarium graminearum [1]; [3]): ++ (++ indicating >5- to 10-fold improvement)
Activity (1): antifungal activity of the NP against Fusarium graminearium (Fusarium graminearum [2]; [6]): +++ (+++ indicates a >10-fold improvement)
Antifungal activity, Septoria tritici (improvement compared to DmAMP1) (Septoria tritici; [5]): + (+ indicating 1- to 5-fold improvement compared to DmAMP1)
Antifungal activity, Mycosphaerella fijiensis (improvement compared to DmAMP1) (Mycosphaerella fijiensis; [5]): + (+ indicating 1- to 5-fold improvement compared to DmAMP1)

DGVKLCERASQTWSGHCGNTKHCDNQCKSWEKAKHGACHVRSGKHKCFCYFNC (Defensin like) [L7-58]
Antifungal activity, Fusarium graminearum (improvement compared to DmAMP1) (Fusarium graminearum [1]; [3]): + (+ indicating 1- to 5-fold improvement compared to DmAMP1)
Activity (1): antifungal activity of the NP against Fusarium graminearium (Fusarium graminearum [2]; [6]): +++ (+++ indicates a >10-fold improvement)
Antifungal activity, Septoria tritici (improvement compared to DmAMP1) (Septoria tritici; [5]): + (+ indicating 1- to 5-fold improvement compared to DmAMP1)
Antifungal activity, Mycosphaerella fijiensis (improvement compared to DmAMP1) (Mycosphaerella fijiensis; [5]): + (+ indicating 1- to 5-fold improvement compared to DmAMP1)

DGVKLCERASKTWTGNCGNTKHCDKQCKNWEGAKHGACHVRNGKWKCFCYFNC (Defensin like) [L7-449]
Antifungal activity, Fusarium graminearum (improvement compared to DmAMP1) (Fusarium graminearum [1]; [3]): +++ (+++ indicating >10-fold improvement)
Activity (1): antifungal activity of the NP against Fusarium graminearium (Fusarium graminearum [2]; [6]): ++ (++ indicates a >5- to 10-fold improvement)
Antifungal activity, Septoria tritici (improvement compared to DmAMP1) (Septoria tritici; [5]): ++ (++ indicating >5- to 10-fold improvement)
Antifungal activity, Mycosphaerella fijiensis (improvement compared to DmAMP1) (Mycosphaerella fijiensis; [5]): + (+ indicating 1- to 5-fold improvement compared to DmAMP1)

DGVKLCERPSQTWSGHCGNTKHCDKQCRNWEGAKHGACHVRNGKWKCFCYFNC (Defensin like) [L7-87]
Antifungal activity, Fusarium graminearum (improvement compared to DmAMP1) (Fusarium graminearum [1]; [3]): +++ (+++ indicating >10-fold improvement)
Activity (1): antifungal activity of the NP against Fusarium graminearium (Fusarium graminearum [2]; [6]): +++ (+++ indicates a >10-fold improvement)
Antifungal activity, Septoria tritici (improvement compared to DmAMP1) (Septoria tritici; [5]): ++ (++ indicating >5- to 10-fold improvement)
Antifungal activity, Mycosphaerella fijiensis (improvement compared to DmAMP1) (Mycosphaerella fijiensis; [5]): + (+ indicating 1- to 5-fold improvement compared to DmAMP1)

NLCERASKTWTGNCGNTKHCDNQCKNWEGAKHGACHVRNGKWKCFCYFNC [L6-41] (Defensin like)
Antifungal activity, Fusarium graminearum (improvement compared to DmAMP1) (Fusarium graminearum [1]; [3]): + (+ indicating 1- to 5-fold improvement compared to DmAMP1)
Activity (1): antifungal activity of the NP against Fusarium graminearium (Fusarium graminearum [2]; [4]): +++ (+++ indicates a >10-fold improvement)
Antifungal activity, Septoria tritici (improvement compared to DmAMP1) (Septoria tritici; [5]): + (+ indicating 1- to 5-fold improvement compared to DmAMP1)
Antifungal activity, Mycosphaerella fijiensis (improvement compared to DmAMP1) (Mycosphaerella fijiensis; [5]): + (+ indicating 1- to 5-fold improvement compared to DmAMP1)

DGVKLCERASQTWTGHCGNTKHCDNQCKNWEGAKHGACHKRSGKWKCFCYFNC (Defensin like) [L7-176]
Antifungal activity, Fusarium graminearum (improvement compared to DmAMP1) (Fusarium graminearum [1]; [3]): + (+ indicating 1- to 5-fold improvement compared to DmAMP1)
Activity (1): antifungal activity of the NP against Fusarium graminearium (Fusarium graminearum [2]; [6]): +++ (+++ indicates a >10-fold improvement)
Antifungal activity, Septoria tritici (improvement compared to DmAMP1) (Septoria tritici; [5]): + (+ indicating 1- to 5-fold improvement compared to DmAMP1)
Antifungal activity, Mycosphaerella fijiensis (improvement compared to DmAMP1) (Mycosphaerella fijiensis; [5]): + (+ indicating 1- to 5-fold improvement compared to DmAMP1)

DGVKLCERPSQTWTGNCGNTKHCDKQCRNWEGAKHGACHVRNGKWKCFCYFNC (Defensin like) [L7-39]
Antifungal activity, Fusarium graminearum (improvement compared to DmAMP1) (Fusarium graminearum [1]; [3]): + (+ indicating 1- to 5-fold improvement compared to DmAMP1)
Activity (1): antifungal activity of the NP against Fusarium graminearium (Fusarium graminearum [2]; [6]): ++ (++ indicates a >5- to 10-fold improvement)
Antifungal activity, Septoria tritici (improvement compared to DmAMP1) (Septoria tritici; [5]): + (+ indicating 1- to 5-fold improvement compared to DmAMP1)
Antifungal activity, Mycosphaerella fijiensis (improvement compared to DmAMP1) (Mycosphaerella fijiensis; [5]): + (+ indicating 1- to 5-fold improvement compared to DmAMP1)

DGVKLCEKPSKTWSGHCGNTKHCDTQCRNWEKAKHGACHVRNGKWKCFCYFNC (Defensin like) [L7-392]
Antifungal activity, Fusarium graminearum (improvement compared to DmAMP1) (Fusarium graminearum [1]; [3]): + (+ indicating 1- to 5-fold improvement compared to DmAMP1)
Activity (1): antifungal activity of the NP against Fusarium graminearium (Fusarium graminearum [2]; [6]): +++ (+++ indicates a >10-fold improvement)
Antifungal activity, Septoria tritici (improvement compared to DmAMP1) (Septoria tritici; [5]): + (+ indicating 1- to 5-fold improvement compared to DmAMP1)
Antifungal activity, Mycosphaerella fijiensis (improvement compared to DmAMP1) (Mycosphaerella fijiensis; [5]): + (+ indicating 1- to 5-fold improvement compared to DmAMP1)

NLCERASKTWTGNCGNTKHCDNQCRNWEGAKHGACHKRSGKWKCFCYFNC (Defensin like) [L9-15]
Antifungal activity, Fusarium graminearum (improvement compared to DmAMP1) (Fusarium graminearum [1]; [3]): ++ (++ indicating >5- to 10-fold improvement)
Activity (1): antifungal activity of the NP against Fusarium graminearium (Fusarium graminearum [2]; [4]): +++ (+++ indicates a >10-fold improvement)
Antifungal activity, Septoria tritici (improvement compared to DmAMP1) (Septoria tritici; [5]): ++ (++ indicating >5- to 10-fold improvement)
Antifungal activity, Mycosphaerella fijiensis (improvement compared to DmAMP1) (Mycosphaerella fijiensis; [5]): + (+ indicating 1- to 5-fold improvement compared to DmAMP1)

NLCERASKTWTGNCGNTKHCDNQCKNWEGAKHGACHVRNGKWKCFCYFNC [L6-21] (Defensin like)
Antifungal activity, Fusarium graminearum (improvement compared to DmAMP1) (Fusarium graminearum [1]; [3]): +++ (+++ indicating >10-fold improvement)
Activity (1): antifungal activity of the NP against Fusarium graminearium (Fusarium graminearum [2]; [4]): +++ (+++ indicates a >10-fold improvement)
Antifungal activity, Septoria tritici (improvement compared to DmAMP1) (Septoria tritici; [5]): +++ (+++ indicating >10-fold improvement)
Antifungal activity, Mycosphaerella fijiensis (improvement compared to DmAMP1) (Mycosphaerella fijiensis; [5]): + (+ indicating 1- to 5-fold improvement compared to DmAMP1)

NLCERASKTWTGNCGNTKHCDTQCKNWEGAKHGACHVRSGKHKCFCYFNC (Defensin like) [L6-58]
Antifungal activity, Fusarium graminearum (improvement compared to DmAMP1) (Fusarium graminearum [1]; [3]): +++ (+++ indicating >10-fold improvement)
Activity (1): antifungal activity of the NP against Fusarium graminearium (Fusarium graminearum [2]; [4]): +++ (+++ indicates a >10-fold improvement)
Antifungal activity, Septoria tritici (improvement compared to DmAMP1) (Septoria tritici; [5]): + (+ indicating 1- to 5-fold improvement compared to DmAMP1)
Antifungal activity, Mycosphaerella fijiensis (improvement compared to DmAMP1) (Mycosphaerella fijiensis; [5]): + (+ indicating 1- to 5-fold improvement compared to DmAMP1)

DGVKLCERPSQTWTGNCGNTKHCDKQCKNWEKAKHGACHVRNGKWKCFCYFNC (Defensin like) [L7-457]
Antifungal activity, Fusarium graminearum (improvement compared to DmAMP1) (Fusarium graminearum [1]; [3]): + (+ indicating 1- to 5-fold improvement compared to DmAMP1)
Activity (1): antifungal activity of the NP against Fusarium graminearium (Fusarium graminearum [2]; [6]): +++ (+++ indicates a >10-fold improvement)
Antifungal activity, Septoria tritici (improvement compared to DmAMP1) (Septoria tritici; [5]): + (+ indicating 1- to 5-fold improvement compared to DmAMP1)
Antifungal activity, Mycosphaerella fijiensis (improvement compared to DmAMP1) (Mycosphaerella fijiensis; [5]): + (+ indicating 1- to 5-fold improvement compared to DmAMP1)

NLCERASKTWTGNCGNTKHCDTQCKNWEGAKHGACHKRNGKWKCFCYFNC (Defensin like) [L3-42]
Antifungal activity, Fusarium graminearum (improvement compared to DmAMP1) (Fusarium graminearum [1]; [3]): +++ (+++ indicating >10-fold improvement)
Activity (1): antifungal activity of the NP against Fusarium graminearium (Fusarium graminearum [2]; [4]): +++ (+++ indicates a >10-fold improvement)
Antifungal activity, Septoria tritici (improvement compared to DmAMP1) (Septoria tritici; [5]): ++ (++ indicating >5- to 10-fold improvement)
Antifungal activity, Mycosphaerella fijiensis (improvement compared to DmAMP1) (Mycosphaerella fijiensis; [5]): + (+ indicating 1- to 5-fold improvement compared to DmAMP1)

NLCERASKTWTGNCGNTKHCDTQCKSWEGAKHGACHVRNGKHKCECYFNC (NLCERASKTWTGNCGNTKHCDTQCKSWEGAKHGACHVRNGKHKCFCYFNC; Defensin like) [L6-84]
Antifungal activity, Fusarium graminearum (improvement compared to DmAMP1) (Fusarium graminearum [1]; [3]): +++ (+++ indicating >10-fold improvement)
Activity (1): antifungal activity of the NP against Fusarium graminearium (Fusarium graminearum [2]; [4]): +++ (+++ indicates a >10-fold improvement)
Antifungal activity, Septoria tritici (improvement compared to DmAMP1) (Septoria tritici; [5]): + (+ indicating 1- to 5-fold improvement compared to DmAMP1)
Antifungal activity, Mycosphaerella fijiensis (improvement compared to DmAMP1) (Mycosphaerella fijiensis; [5]): +++ (+++ indicating >10-fold improvement)

NLCERASKTWSGNCGNTKHCDTQCKSWEGAKHGACHVRNGKHKCFCYFNC (Defensin like) [L9-26]
Antifungal activity, Fusarium graminearum (improvement compared to DmAMP1) (Fusarium graminearum [1]): +++ (key: + indicating 1- to 5-fold improvement compared to DmAMP1; ++ indicating >5- to 10-fold improvement; +++ indicating >10-fold improvement)
Antifungal activity, Septoria tritici (improvement compared to DmAMP1) (Septoria tritici): +++ (key: + indicating 1- to 5-fold improvement compared to DmAMP1; ++ indicating >5- to 10-fold improvement; +++ indicating >10-fold improvement)
Antifungal activity, Mycosphaerella fijiensis (improvement compared to DmAMP1) (Mycosphaerella fijiensis): ++ (key: + indicating 1- to 5-fold improvement compared to DmAMP1; ++ indicating >5- to 10-fold improvement; +++ indicating >10-fold improvement)
